In brackets after ≈: the same amount, converted by molar mass. Starred links: 1 amine or outer side, 2 acyl side, 3 side chain; linkers in the order of their positions; H or OH if unused. Non-standard residues stand in square brackets, D forms with d. Residues, ends and D or L forms follow the SMILES beside them. X2 = C[C@@H]1CC(O)O[C@H]1[C@H](C(=O)[*:2])N(C)[*:1]; X1 = C[C@@H]1CCO[C@H]1[C@H](C(=O)[*:2])N(C)[*:1]; NMeL = CN[C@@H](CC(C)C)C(=O)O; dNMeL = CN[C@H](CC(C)C)C(=O)O; dNMeV = CN[C@@H](C(=O)O)C(C)C; dNMeA = CN[C@H](C)C(=O)O
Columns and labels:
[1] = target: T1, Human recombinant cyclophilin A (CypA) (Homo sapiens, UniProt P62937); assay: Protease-free PPIase assay, cyclophilin A; type: biochemical; conditions: human recombinant CypA, 10 °C, SUC-AAPF-pNA substrate; read-out: CypA Protease-free PPIase Assay Ki
T1 construct: purchased Sigma C3805
Method: (§1) Protease-Free PPIase Assay The protease-free PPIase assay measures the rate of cis to trans conversion of a peptide substrate catalyzed by the enzyme cyclophilin A or D. Addition of a cyclophilin inhibitor (e.g., a test compound) slows the catalyzed rate and a Ki value is obtained. 35 mM HEPES pH 7.8, filtered through a 0.2 μm filter. 50 μM DTT was added prior to use each day and then the buffer was stored on ice. […] Human recombinant 6-His tagged cyclophilin D (CypD), prepared by the University of Edinburgh, was used to generate CypD inhibition data. Succinimide-[…]-nitroanilide (SUC-AAPF-pNA) (from Bachem AG, L-1400), 20 mg/ml prepared in 0.5 M LiCl in trifluoroethanol. All readings were taken with an Agilent 8453 Spectrophotometer which consisted of a cuvette holder, stirrer and chiller to maintain a stirred cuvette temperature of 10.0±0.1° C. The temperature was monitored by the use of temperature probe. […] The inhibitor was diluted in 100% DMSO, and then added to the assay to a maximum final concentration of 0.5% DMSO in the assay. […] The absorbance was measured at 330 nm for 300 s or 500 s for blank runs (NOTE: the substrate was added in one quick injection and the measurements started immediately to minimize mixing errors). A first order rate equation was fitted to the absorbance data, for each concentration of inhibitor, to obtain the rate constant (the first 10 to 15 seconds were excluded, as mixing causes errors in this portion of the curve). The catalytic rate was calculated from the enzymatic rate constant minus the background rate constant. An exponential curve was generated using the catalytic rate constants versus the inhibitor concentration to obtain the Ki value for the inhibitor. The Ki value is indicative of the binding affinity between the test compound and cyclophilin A.

physchem = conditions: 25 °C, pH 7.4, aqueous buffer, kinetic from dmso stock
Method: The aqueous solubility of a compound of Formula I in buffer (pH 7.8) was measured by recording the onset of precipitation of the compound as a function of increasing concentration. The onset of precipitation, if it occurred, was detected by an increase in absorbance at 650 nm.
Stock solutions of Control and Test Compounds: 10 mM in 100% DMSO.
10 mM stock solutions of control and test compounds were prepared in 100% DMSO.
Assay buffer (247.5 μl) was placed into a flat bottomed transparent 96-well plate. For blank samples, DMSO (2.5 μl) was added. For test and control samples, 2.5 μl of the appropriate DMSO dilution stocks were added to the appropriate well. All test and control compounds were performed in triplicate.
The plates were sealed with adhesive plate seal and shaken at 250 rpm at 25° C. for 18 h on a plate shaker. After incubation, the plate seals were taken off and any bubbles observed in wells removed. The plates were read on a SpectraMaxM5 with a 5 s pre-shake at 650 nm.
Data files were transferred to the appropriate worksheet and the solubility range of the compounds was calculated from the data.

[2] = target: T2, Human recombinant 6-His tagged cyclophilin D (CypD) (Homo sapiens, UniProt P30405); assay: Protease-free PPIase assay, cyclophilin D; type: biochemical; conditions: human recombinant 6-His CypD, 10 °C, SUC-AAPF-pNA substrate; read-out: CypD Protease-free PPIase Assay Ki
T2 construct: 6-His
Method: as §1

calcineurin = target: T3, calcineurin (Homo sapiens, UniProt P62937+P63098+Q08209); assay: Calcineurin Phosphatase (CaN) Assay; type: biochemical; conditions: in the presence of CypA, 1:1 complex of inhibitor with CypA
T3 construct: purchased Enzo Life Sciences BML-AK804
Description: Calcineurin Phosphatase (CaN) Assay
The calcineurin phosphatase assay is a means for estimating the immunosuppressive potential of a test compound. Calcineurin is a serine-threonine protein phosphatase that on activation dephosphorylates members of the nuclear factor of activated T cells (NFAT), which are important in T lymphocyte activation.
To investigate the immunosuppressive potential of exemplary compounds of Formula I, which are cyclosporin analogs, their ability to inhibit calcineurin activity was measured in the presence and absence of CypA.
The CaN assay kit used is based on a colorimetric assay for measuring calcineurin phosphatase activity, and it is commercially available (Enzo Life Sciences and Calbiochem). Calmodulin is also required for calcineurin activity, and RII phosphopeptide is used as an efficient peptide substrate for calcineurin. […] The detection of free phosphate released is based on the classic Malachite green assay.
Enzo Life Sciences CaN Assay Kit: BML-AK804
For samples ‘without CypA’, a 4-point dilution series of the inhibitor was prepared in duplicate to obtain a final assay concentration of 10, 1, 0.1 and 0.01 μM. For samples ‘with CypA’, a 7-point dilution series was prepared to obtain a 1:1 complex of the inhibitor with CypA; the inhibitor and CypA final assay concentrations of 10, 3.33, 1.11, 0.37, 0.12, 0.04, 0.014 μM were prepared.
using the half area 96 well plates supplied with the kit, 10 μl UPW was added to duplicate wells to provide the non-inhibited control. 10 μl of the inhibitor or the inhibitor/CypA complex was added to the appropriate sample wells. 25 μl of the 2× assay buffer with calmodulin (CaM) was added to all wells, then 5 μl of calcineurin phosphatase (CaN) was added to all wells (40 U per well final concentration) except duplicate ‘no calcineurin blank’ wells to which 5 μL 1× assay buffer was added. The assay plate was placed in an oven at 30° C. for 15 minutes to equilibrate to the reaction temperature. The reaction was started by the addition of 10 μl RII-peptide (0.15 mM final concentration). The reaction was allowed to proceed at 30° C. for a time period in which the reaction is linear for about 60 minutes. The reaction was then terminated by adding 100 μl of the Malachite Green reagent. The color was allowed to develop for 15-30 minutes at room temperature before the absorbance at 620 nm was measured using a plate reader (Molecular Devices—SpectraMax M5). The data were analyzed by subtracting ‘no calcineurin blank’ from all the absorbance readings and plotting the background corrected absorbances against Log10 inhibitor concentration. A sigmoidal-dose response curve was fitted to the data using GraphPad Prism Software.
It exerts its immunosuppressive activity by binding to CypA to form a complex, which then binds to calcineurin and thereby inhibits calcineurin activity.

T2 sequence (P30405 30-207): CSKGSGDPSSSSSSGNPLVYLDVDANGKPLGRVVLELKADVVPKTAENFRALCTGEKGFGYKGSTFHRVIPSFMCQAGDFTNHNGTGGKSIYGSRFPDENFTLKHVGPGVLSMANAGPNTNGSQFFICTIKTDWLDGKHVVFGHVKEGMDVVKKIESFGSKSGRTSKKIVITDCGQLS
T1 sequence (P62937 whole entry): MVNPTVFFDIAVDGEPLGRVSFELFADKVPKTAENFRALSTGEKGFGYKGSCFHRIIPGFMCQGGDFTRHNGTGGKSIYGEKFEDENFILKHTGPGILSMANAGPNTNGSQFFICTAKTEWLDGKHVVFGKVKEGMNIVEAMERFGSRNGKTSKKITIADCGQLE

Row | Structure (SMILES) | Ki [1] | solubility at 18 h (physchem) | Ki [2] | IC50 (calcineurin)
1 | CC(C)C[C@@H]1C(=O)N(C)[C@H](CC(C)C)C(=O)N(C)[C@H](C(C)C)C(=O)N(C)[C@H]([C@@H]2OCC[C@H]2C)C(=O)N[C@H](C(C)C)C(=O)N(C)[C@H](C)C(=O)N(C)[C@@H](CC(C)C)C(=O)N[C@H](C(C)C)C(=O)N(C)[C@H](CC(C)C)C(=O)N[C@H](C)C(=O)N[C@@H](C)C(=O)N1C [Compound 6, [(2S)-2-(methylamino)-2-[(2R,3R)-3-methyltetrahydrofuran-2-yl]acetic acid]^1 [(R)-methyl-Sar]^3 cyclosporin D] (cyclo(A[dNMeL][dNMeL][dNMeV][X1][dV][dNMeA][NMeL][dV][dNMeL][dA])) | 5.6 nM | 50 µM (≈ 60.1 µg/mL) | 1.9 nM | > 10000 nM
2 | CC(C)C[C@@H]1C(=O)N(C)[C@H](CC(C)C)C(=O)N(C)[C@H](C(C)C)C(=O)N(C)[C@H]([C@@H]2OCC[C@H]2C)C(=O)N[C@H](C(C)C)C(=O)N(C)CC(=O)N(C)[C@@H](CC(C)C)C(=O)N[C@H](C(C)C)C(=O)N(C)[C@H](CC(C)C)C(=O)N[C@H](C)C(=O)N[C@@H](C)C(=O)N1C [Compound 7, [(2S)-2-(methylamino)-2-[(2R,3R)-3-methyltetrahydrofuran-2-yl]acetic acid]^1 cyclosporin D] | 400 nM | 75 µM (≈ 89.1 µg/mL) | 81 nM | > 10000 nM
3 | CC(C)C[C@@H]1C(=O)N(C)[C@H](CC(C)C)C(=O)N(C)[C@H](C(C)C)C(=O)N(C)[C@H]([C@@H]2OCC[C@H]2C)C(=O)N[C@H]([C@@H](C)O)C(=O)N(C)CC(=O)N(C)[C@@H](CC(C)C)C(=O)N[C@H](C(C)C)C(=O)N(C)[C@H](CC(C)C)C(=O)N[C@H](C)C(=O)N[C@@H](C)C(=O)N1C [Compound 8, [(2S)-2-(methylamino)-2-[(2R,3R)-3-methyltetrahydrofuran-2-yl]acetic acid]^1 cyclosporin C] | 1500 nM | > 100 µM | 105 nM | > 10000 nM
4 | CC(C)C[C@@H]1C(=O)N(C)[C@H](CC(C)C)C(=O)N(C)[C@H](C(C)C)C(=O)N(C)[C@H]([C@@H]2OCC[C@H]2C)C(=O)N[C@H](C)C(=O)N(C)[C@H](C)C(=O)N(C)[C@@H](CC(C)C)C(=O)N[C@H](C(C)C)C(=O)N(C)[C@H](CC(C)C)C(=O)N[C@H](C)C(=O)N[C@@H](C)C(=O)N1C [Compound 10, [(2S)-2-(methylamino)-2-[(2R,3R)-3-methyltetrahydrofuran-2-yl]acetic acid]^1 [(R)-methyl-Sar]^3 cyclosporin B] (cyclo(A[dNMeL][dNMeL][dNMeV][X1][dA][dNMeA][NMeL][dV][dNMeL][dA])) | 2000 nM | > 100 µM | 680 nM | > 10000 nM
5 | CC(C)C[C@@H]1C(=O)N(C)[C@H](CC(C)C)C(=O)N(C)[C@H](C(C)C)C(=O)N(C)[C@H]([C@@H]2OC(O)C[C@H]2C)C(=O)N[C@H](C(C)C)C(=O)N(C)[C@H](C)C(=O)N(C)[C@@H](CC(C)C)C(=O)N[C@H](C(C)C)C(=O)N(C)[C@H](CC(C)C)C(=O)N[C@H](C)C(=O)N[C@@H](C)C(=O)N1C (stereo partly drawn) [Compound 14, [(2S)-2-[(2R,3R)-5-Hydroxy-3-methyl-tetrahydrofuran-2-yl]-2-(methylamino)acetic acid]^1 [(R)-methyl-Sar]^3 cyclosporin D] (cyclo(A[dNMeL][dNMeL][dNMeV][X2][dV][dNMeA][NMeL][dV][dNMeL][dA])) | 20.4 nM | > 100 µM | 8.4 nM | > 10000 nM
6 | CC[C@H]1NC(=O)[C@H]([C@H]2OCC[C@H]2C)N(C)C(=O)[C@@H](C(C)C)N(C)C(=O)[C@@H](CC(C)C)N(C)C(=O)[C@@H](CC(C)C)N(C)C(=O)[C@H](C)NC(=O)[C@@H](C)NC(=O)[C@@H](CC(C)C)N(C)C(=O)[C@@H](C(C)C)NC(=O)[C@H](CC(C)C)N(C)C(=O)[C@@H](C)N(C)C1=O [Compound 18, [(2S)-2-(methylamino)-2-[(2S,3R)-3-methyltetrahydrofuran-2-yl]acetic acid]^1 [(R)-methyl-Sar]^3 cyclosporin A] | 79 nM | 25 µM (≈ 29.7 µg/mL) | 15 nM | > 10000 nM
7 | CC[C@H]1NC(=O)[C@H]([C@@H]2[C@H](C)CCN2C)N(C)C(=O)[C@@H](C(C)C)N(C)C(=O)[C@@H](CC(C)C)N(C)C(=O)[C@@H](CC(C)C)N(C)C(=O)[C@H](C)NC(=O)[C@@H](C)NC(=O)[C@@H](CC(C)C)N(C)C(=O)[C@@H](C(C)C)NC(=O)[C@H](CC(C)C)N(C)C(=O)[C@@H](C)N(C)C1=O [Compound 19, [(2S)-2-[(2S,3R)-1,3-dimethylpyrrolidin-2-yl]-2-(methylamino)acetic acid]^1 [(R)-methyl-Sar]^3 cyclosporin A] | 404 nM | > 100 µM | 130 nM | 8990 nM
8 | CC[C@H]1NC(=O)[C@H]([C@H]2NCC[C@H]2C)N(C)C(=O)[C@@H](C(C)C)N(C)C(=O)[C@@H](CC(C)C)N(C)C(=O)[C@@H](CC(C)C)N(C)C(=O)[C@H](C)NC(=O)[C@@H](C)NC(=O)[C@@H](CC(C)C)N(C)C(=O)[C@@H](C(C)C)NC(=O)[C@H](CC(C)C)N(C)C(=O)[C@@H](C)N(C)C1=O [Compound 20, [(2S)-2-(methylamino)-2-[(2S,3R)-3-methylpyrrolidin-2-yl]acetic acid]^1 [(R)-methyl-Sar]^3 cyclosporin A] | 149 nM | > 100 µM | 36 nM | > 10000 nM
9 | CC[C@H]1NC(=O)[C@@H]([C@@H]2OC(=O)N(C)C[C@H]2C)N(C)C(=O)[C@@H](C(C)C)N(C)C(=O)[C@@H](CC(C)C)N(C)C(=O)[C@@H](CC(C)C)N(C)C(=O)[C@H](C)NC(=O)[C@@H](C)NC(=O)[C@@H](CC(C)C)N(C)C(=O)[C@@H](C(C)C)NC(=O)[C@H](CC(C)C)N(C)C(=O)[C@@H](C)N(C)C1=O [Compound 22] | 315 nM | > 100 µM | 160 nM | > 10000 nM
10 | CC[C@H]1NC(=O)[C@@H]([C@@H]2OCN(C)C[C@H]2C)N(C)C(=O)[C@@H](C(C)C)N(C)C(=O)[C@@H](CC(C)C)N(C)C(=O)[C@@H](CC(C)C)N(C)C(=O)[C@H](C)NC(=O)[C@@H](C)NC(=O)[C@@H](CC(C)C)N(C)C(=O)[C@@H](C(C)C)NC(=O)[C@H](CC(C)C)N(C)C(=O)[C@@H](C)N(C)C1=O [Compound 24] | 550 nM | > 100 µM | 79 nM | > 10000 nM
